# Where “and” joins values, the source holds several entries; their conditions need not be identical. Equal values may be shown once.
# Columns and labels:
# [1] = biological target: MOR (Homo sapiens, UniProt P35372); experiment: cell-based
# [2] = biological target: T1, KOR (Homo sapiens, UniProt P41145); experiment: Radioligand binding counter-screen (NIMH PDSP); parameters: NIMH Psychoactive Drug Screening Program
# [3] = biological target: mKOR (Mus musculus, UniProt P33534); experiment: biochemical
# [4] = biological target: T1, KOR
# [5] = biological target: DOR (Homo sapiens, UniProt P41143); experiment: Radioligand binding counter-screen (NIMH PDSP); parameters: National Institutes of Mental Health Psychoactive Drug Screen Program (service)
# [6] = biological target: T2, mDOR (Mus musculus, UniProt P32300); experiment: cell-based
# [7] = biological target: mMOR (Mus musculus, UniProt P42866); experiment: biochemical
# [8] = tested on: MOR KO, KOR KO and DOR KO mice; experiment: 55°C warm-water tail-withdrawal assay in opioid receptor knock out mice; format: in vivo, mouse
# [9] = biological target: T2, mDOR; experiment: biochemical; conditions: read-out: Emax mDOR [35S]GTPγS
# [10] = biological target: T1, KOR; experiment: cell-based
# [11] = transduction coefficient log(T/KA)
# [12] = DOR KO mice, 100 nmol i.c.v. in 50% DMSO, group mean n=8
# [13] = DOR KO mice, 100 nmol i.c.v. in 50% DMSO, individual mouse
# [14] = KOR KO mice, 100 nmol i.c.v. in 50% DMSO, group mean n=8
# [15] = KOR KO mice, 100 nmol i.c.v. in 50% DMSO, individual mouse
# [16] = KOR KO mice, 100 nmol i.c.v. in 50% DMSO, group mean n=6
# [17] = KOR KO mice, 100 nmol i.c.v., per mouse
# [18] = MP1207 30 nmol icv, MP1208 35 nmol icv
# T1 sequence (P41145 whole entry): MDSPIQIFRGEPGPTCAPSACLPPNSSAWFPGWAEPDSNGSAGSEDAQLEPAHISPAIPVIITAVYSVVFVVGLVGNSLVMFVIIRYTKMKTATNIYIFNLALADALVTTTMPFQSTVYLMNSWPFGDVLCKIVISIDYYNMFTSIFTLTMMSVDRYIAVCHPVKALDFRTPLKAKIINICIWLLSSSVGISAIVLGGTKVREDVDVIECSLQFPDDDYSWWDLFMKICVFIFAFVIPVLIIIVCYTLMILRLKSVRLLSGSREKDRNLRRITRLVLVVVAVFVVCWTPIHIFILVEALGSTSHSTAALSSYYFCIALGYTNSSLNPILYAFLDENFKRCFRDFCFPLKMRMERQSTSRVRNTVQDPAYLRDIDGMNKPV
# T2 sequence (P32300 whole entry): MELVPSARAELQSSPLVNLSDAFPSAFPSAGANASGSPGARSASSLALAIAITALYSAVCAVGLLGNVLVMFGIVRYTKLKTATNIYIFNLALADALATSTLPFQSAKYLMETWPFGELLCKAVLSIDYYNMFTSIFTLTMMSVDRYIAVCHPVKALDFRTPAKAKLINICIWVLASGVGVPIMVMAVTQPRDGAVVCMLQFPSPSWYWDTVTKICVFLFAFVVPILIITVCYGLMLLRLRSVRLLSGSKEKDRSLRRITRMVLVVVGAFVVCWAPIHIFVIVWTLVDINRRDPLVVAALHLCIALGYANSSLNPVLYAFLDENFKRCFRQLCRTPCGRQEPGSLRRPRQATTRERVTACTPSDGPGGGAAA
# MOR, sequence (P35372 whole entry): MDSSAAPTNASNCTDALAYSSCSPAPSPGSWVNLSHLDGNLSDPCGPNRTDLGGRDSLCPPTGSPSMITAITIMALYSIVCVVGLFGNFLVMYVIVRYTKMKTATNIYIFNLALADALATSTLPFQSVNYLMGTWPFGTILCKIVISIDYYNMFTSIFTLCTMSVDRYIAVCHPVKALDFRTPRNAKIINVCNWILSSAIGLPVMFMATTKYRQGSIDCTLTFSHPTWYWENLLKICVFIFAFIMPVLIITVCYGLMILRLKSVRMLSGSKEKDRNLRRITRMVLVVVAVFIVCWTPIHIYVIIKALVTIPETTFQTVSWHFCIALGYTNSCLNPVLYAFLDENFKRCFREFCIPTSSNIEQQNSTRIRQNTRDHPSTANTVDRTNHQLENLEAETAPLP
# mKOR, sequence (P33534 whole entry): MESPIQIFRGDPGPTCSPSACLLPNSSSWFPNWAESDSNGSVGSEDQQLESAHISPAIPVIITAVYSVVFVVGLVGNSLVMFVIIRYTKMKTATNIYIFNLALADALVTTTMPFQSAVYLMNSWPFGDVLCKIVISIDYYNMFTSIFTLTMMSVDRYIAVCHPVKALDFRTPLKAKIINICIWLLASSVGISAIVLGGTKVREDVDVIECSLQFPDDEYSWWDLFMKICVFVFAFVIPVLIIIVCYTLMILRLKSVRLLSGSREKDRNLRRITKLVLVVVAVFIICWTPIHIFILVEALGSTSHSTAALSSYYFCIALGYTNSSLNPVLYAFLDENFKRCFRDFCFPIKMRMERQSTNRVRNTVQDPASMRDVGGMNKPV
# DOR, sequence (P41143 whole entry): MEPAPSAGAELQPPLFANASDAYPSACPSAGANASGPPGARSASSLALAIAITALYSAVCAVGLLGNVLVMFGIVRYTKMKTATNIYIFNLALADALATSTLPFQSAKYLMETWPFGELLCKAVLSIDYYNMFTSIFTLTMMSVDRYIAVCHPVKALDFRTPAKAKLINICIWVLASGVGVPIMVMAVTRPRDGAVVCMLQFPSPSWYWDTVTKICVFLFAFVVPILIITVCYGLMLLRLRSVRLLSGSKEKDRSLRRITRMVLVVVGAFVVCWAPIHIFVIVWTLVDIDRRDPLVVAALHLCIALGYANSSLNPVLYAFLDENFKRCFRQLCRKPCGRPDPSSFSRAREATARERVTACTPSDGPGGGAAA
# mMOR, sequence (P42866 whole entry): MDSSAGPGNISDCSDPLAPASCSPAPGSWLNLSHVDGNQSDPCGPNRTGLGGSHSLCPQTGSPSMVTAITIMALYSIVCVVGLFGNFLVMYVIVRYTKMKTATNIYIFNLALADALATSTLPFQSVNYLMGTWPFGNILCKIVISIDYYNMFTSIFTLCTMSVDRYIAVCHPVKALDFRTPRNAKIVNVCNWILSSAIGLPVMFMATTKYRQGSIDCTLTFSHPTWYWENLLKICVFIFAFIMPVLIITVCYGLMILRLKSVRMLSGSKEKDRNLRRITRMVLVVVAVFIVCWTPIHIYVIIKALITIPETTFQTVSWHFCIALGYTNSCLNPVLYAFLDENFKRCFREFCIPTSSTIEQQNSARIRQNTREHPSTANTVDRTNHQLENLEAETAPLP
smiles,measurement,setting,value
"NCc1cccc(C(=O)N[C@@H]2CCC3C4Cc5ccc(O)c6c5[C@@]3(CCN4CC3CC3)C2O6)c1 (stereo partly drawn) [MP1207, 3-(Aminomethyl)-N-((7R,12bS)−3-(cyclopropylmethyl)−9-hydroxy-2,3,4,4a,5,6,7,7a-octahydro-1H-4,12-methanobenzofuro[3,2-e]isoquinolin-7-yl)benzamide]",Emax,"[1]; HEK-293T, read-out: Emax% cAMP inhibition hMOR",33 ± 1.4%
same,EC50,[1]; pEC50 cAMP inhibition hMOR,0.0339 nM
same,Ki,[2],0.39 nM
same,Ki,[3],0.39 ± 0.05 nM
same,ΔΔlog RA (cAMP-Tango) hKOR,[4],0.903±0.026
same,Bias factor (cAMP-Tango) hKOR,"[4]; >1 G protein bias, <1 arrestin bias, vs U50,488h",8
same,Log RA cAMP hKOR,[4]; [11],9.902±0.004
same,LogRA Tango hKOR,[4]; [11],7.97±0.024
same,ΔlogRA Tango hKOR,"[4]; vs U50,488h",-0.176±0.025
same,ΔlogRA cAMP hKOR,"[4]; vs U50,488h",0.73±0.006
same,Ki,[5],60.1 nM
same,EC50,[6]; EC50 G protein activation (BRET) mDOR,116 nM
same,Emax,"[6]; HEK-293T, read-out: Emax% G protein activation (BRET) mDOR",52 ± 2.3%
same,Ki,[7],0.23 ± 0.02 nM
same,%A-10 min,[8]; [12],77.68%
same,"tail-withdrawal latency, 10 min",[8]; [12],12.075 s
same,%A-10 min,[8]; [13],100% and 14.62% and 6.82%
same,"tail-withdrawal latency, 10 min",[8]; [13],15 s and 3.9 s and 2.7 s
same,%A-20 min,[8]; [12],75.4713%
same,"tail-withdrawal latency, 20 min",[8]; [12],11.775 s
same,%A-20 min,[8]; [13],100% and 91.85% and 84.33% and 20.77% and 6.82%
same,"tail-withdrawal latency, 20 min",[8]; [13],15 s and 13.9 s and 12.9 s and 4.7 s and 2.7 s
same,%A-30 min,[8]; [12],78.53%
same,"tail-withdrawal latency, 30 min",[8]; [12],12.1875 s
same,%A-30 min,[8]; [13],100% and 13.85% and 14.39%
same,"tail-withdrawal latency, 30 min",[8]; [13],15 s and 3.8 s and 3.7 s
same,%A-40 min,[8]; [12],46.6687%
same,"tail-withdrawal latency, 40 min",[8]; [12],7.925 s
same,%A-40 min,[8]; [13],100% and 51.85% and 38.64% and 23.13% and 45.52% and 89.78% and 12.31% and 12.12%
same,"tail-withdrawal latency, 40 min",[8]; [13],15 s and 8.5 s and 6.9 s and 4.7 s and 7.7 s and 13.6 s and 3.6 s and 3.4 s
same,%A-50 min,[8]; [12],38.3875%
same,"tail-withdrawal latency, 50 min",[8]; [12],6.8 s
same,%A-50 min,[8]; [13],62.12% and 17.04% and 35.61% and 100% and 29.1% and 37.96% and 17.69% and 7.58%
same,"tail-withdrawal latency, 50 min",[8]; [13],10 s and 3.8 s and 6.5 s and 15 s and 5.5 s and 4.3 s and 2.8 s
same,%A-60 min,[8]; [12],43.0038%
same,"tail-withdrawal latency, 60 min",[8]; [12],7.425 s
same,%A-60 min,[8]; [13],62.12% and 55.56% and 25% and 100% and 36.57% and 36.5% and 16.92% and 11.36%
same,"tail-withdrawal latency, 60 min",[8]; [13],10 s and 9 s and 5.1 s and 15 s and 6.5 s and 6.3 s and 4.2 s and 3.3 s
same,%A-70 min,[8]; [12],13.2125%
same,"tail-withdrawal latency, 70 min",[8]; [12],3.4375 s
same,%A-70 min,[8]; [13],10.61% and 9.63% and 20.45% and 13.43% and 5.97% and 19.71% and 9.23% and 16.67%
same,"tail-withdrawal latency, 70 min",[8]; [13],3.2 s and 2.8 s and 4.5 s and 3.4 s and 2.4 s and 4 s
same,%A-80 min,[8]; [12],8.564%
same,"tail-withdrawal latency, 80 min",[8]; [12],2.8125 s
same,%A-80 min,[8]; [13],5.3% and 7.41% and 6.82% and 9.7% and 4.48% and 5.84% and 11.54% and 17.42%
same,"tail-withdrawal latency, 80 min",[8]; [13],2.5 s and 2.7 s and 2.9 s and 2.2 s and 2.1 s and 3.5 s and 4.1 s
same,%A-90 min,[8]; [12],3.185%
same,"tail-withdrawal latency, 90 min",[8]; [12],1.95 s
same,%A-90 min,[8]; [13],3.03% and 3.7% and 0% and 5.11% and 13.64%
same,"tail-withdrawal latency, 90 min",[8]; [13],2.2 s and 2 s and 1.5 s and 1.4 s and 1.1 s and 1.8 s and 3.6 s
same,%A-100 min,[8]; [12],2.474%
same,"tail-withdrawal latency, 100 min",[8]; [12],1.925 s
same,%A-100 min,[8]; [13],0% and 2.22% and 0.75% and 2.24% and 0.73% and 13.85%
same,"tail-withdrawal latency, 100 min",[8]; [13],1.6 s and 1.8 s and 1.4 s and 1.7 s and 1.9 s and 3.8 s
same,%A-110 min,[8]; [12],0.555%
same,"tail-withdrawal latency, 110 min",[8]; [12],1.6125 s
same,%A-110 min,[8]; [13],0% and 2.22% and 1.49% and 0.73%
same,"tail-withdrawal latency, 110 min",[8]; [13],1.3 s and 1.8 s and 1.6 s and 1.4 s and 1.9 s and 1.7 s
same,%A-10 min,[8]; [14],63.4062%
same,"tail-withdrawal latency, 10 min",[8]; [14],10.1 s
same,%A-10 min,[8]; [15],100% and 52.52% and 98.5% and 0% and 0.76%
same,"tail-withdrawal latency, 10 min",[8]; [15],15 s and 8.4 s and 14.8 s and 1.8 s and 1.9 s
same,%A-20 min,[8]; [14],39.6638%
same,"tail-withdrawal latency, 20 min",[8]; [14],6.8125 s
same,%A-20 min,[8]; [15],34.59% and 36.76% and 15.83% and 23.31% and 0% and 6.82%
same,"tail-withdrawal latency, 20 min",[8]; [15],6.3 s and 6.4 s and 3.3 s and 4.8 s and 1 s and 2.7 s
same,%A-30 min,[8]; [14],26.1938%
same,"tail-withdrawal latency, 30 min",[8]; [14],5.125 s
same,%A-30 min,[8]; [15],21.8% and 44.85% and 16.55% and 0% and 4.55%
same,"tail-withdrawal latency, 30 min",[8]; [15],4.6 s and 7.5 s and 3.4 s and 2.2 s and 2.4 s
same,%A-40 min,[8]; [14],17.335%
same,"tail-withdrawal latency, 40 min",[8]; [14],3.9125 s
same,%A-40 min,[8]; [15],14.29% and 16.91% and 15.83% and 12.78% and 7.81% and 6.82%
same,"tail-withdrawal latency, 40 min",[8]; [15],3.6 s and 3.7 s and 3.3 s and 3.4 s and 3.2 s and 2.7 s
same,%A-50 min,[8]; [14],20.3588%
same,"tail-withdrawal latency, 50 min",[8]; [14],4.2125 s
same,%A-50 min,[8]; [15],11.28% and 27.21% and 10.07% and 32.33% and 0% and 6.06%
same,"tail-withdrawal latency, 50 min",[8]; [15],3.2 s and 5.1 s and 2.5 s and 6 s and 1.3 s and 2.6 s
same,%A-60 min,[8]; [14],11.2062%
same,"tail-withdrawal latency, 60 min",[8]; [14],3.0875 s
same,%A-60 min,[8]; [15],3.76% and 12.5% and 6.47% and 0.75% and 6.25% and 1.52%
same,"tail-withdrawal latency, 60 min",[8]; [15],2.2 s and 3.1 s and 2 s and 1.8 s and 3 s
same,%A-70 min,[8]; [14],9.87%
same,"tail-withdrawal latency, 70 min",[8]; [14],2.85 s
same,%A-70 min,[8]; [15],5.26% and 19.85% and 3.6% and 7.52% and 0% and 10.61%
same,"tail-withdrawal latency, 70 min",[8]; [15],2.4 s and 4.1 s and 1.6 s and 2.7 s and 1.8 s and 3.2 s
same,%A-80 min,[8]; [14],8.631%
same,"tail-withdrawal latency, 80 min",[8]; [14],2.725 s
same,%A-80 min,[8]; [15],1.5% and 30.88% and 2.16% and 12.78% and 3.91% and 8.33%
same,"tail-withdrawal latency, 80 min",[8]; [15],1.9 s and 5.6 s and 1.4 s and 3.4 s and 2.7 s and 2.9 s
same,%A-90 min,[8]; [14],1.379%
same,"tail-withdrawal latency, 90 min",[8]; [14],1.7125 s
same,%A-90 min,[8]; [15],0% and 0.74% and 0.72% and 0.78% and 0.76%
same,"tail-withdrawal latency, 90 min",[8]; [15],1.5 s and 1.2 s and 1.6 s and 2.3 s and 1.9 s
same,%A-100 min,[8]; [16],1.217%
same,"tail-withdrawal latency, 100 min",[8]; [16],1.55 s
same,%A-100 min,[8]; [15],0.75% and 1.47% and 2.16% and 0%
same,"tail-withdrawal latency, 100 min",[8]; [15],1.8 s and 1.6 s and 1.4 s and 1.5 s
same,%A-110 min,[8]; [16],0.365%
same,"tail-withdrawal latency, 110 min",[8]; [16],1.467 s
same,%A-110 min,[8]; [15],0% and 0.74% and 0.72%
same,"tail-withdrawal latency, 110 min",[8]; [15],1.7 s and 1.5 s and 1.2 s
same,%A-10 min,[8]; [17],100% and 55.47%
same,"tail-withdrawal latency, 10 min",[8]; [17],15 s and 8.9 s
same,%A-20 min,[8]; [17],100%
same,"tail-withdrawal latency, 20 min",[8]; [17],15 s
same,%A-30 min,[8]; [17],38.69% and 61.31%
same,"tail-withdrawal latency, 30 min",[8]; [17],6.6 s and 9.7 s
same,%A-40 min,[8]; [17],31.39% and 32.85%
same,"tail-withdrawal latency, 40 min",[8]; [17],5.6 s and 5.8 s
same,%A-50 min,[8]; [17],45.26% and 30.66%
same,"tail-withdrawal latency, 50 min",[8]; [17],7.5 s and 5.5 s
same,%A-60 min,[8]; [17],13.14% and 45.26%
same,"tail-withdrawal latency, 60 min",[8]; [17],3.1 s and 7.5 s
same,%A-70 min,[8]; [17],19.71% and 12.41%
same,"tail-withdrawal latency, 70 min",[8]; [17],4 s and 3 s
same,%A-80 min,[8]; [17],8.03% and 1.46%
same,"tail-withdrawal latency, 80 min",[8]; [17],2.4 s and 1.5 s
same,%A-90 min,[8]; [17],2.92% and 5.11%
same,"tail-withdrawal latency, 90 min",[8]; [17],1.7 s and 2 s
same,%A-100 min,[8]; [17],0% and 2.92%
same,"tail-withdrawal latency, 100 min",[8]; [17],1.3 s and 1.7 s
same,%A-110 min,[8]; [17],0% and 0.73%
same,"tail-withdrawal latency, 110 min",[8]; [17],1.3 s and 1.4 s
same,antinociception in DOR KO mice vs WT,[8]; [18],remained intact
same,antinociception in KOR KO mice vs WT,[8]; [18],attenuated
same,antinociception in MOR KO mice vs WT,[8]; [18],attenuated
same,Emax,[9],10 to 15%
same,EC50,[10]; EC50 arrestin recruitment (Tango) hKOR,3.97 nM
same,Emax,"[10]; HTLA, read-out: Emax% arrestin recruitment (Tango) hKOR",37 ± 2%
